{"source": "patent US12049466B2", "about": "“Fused bicyclic compounds useful as ubiquitin-specific peptidase 30 inhibitors” (FORMA Therapeutics, Inc., priority 2018, dated 2024)"}
{"target": "T1, human recombinant USP30 (Homo sapiens, UniProt Q70CQ3)", "T1 construct": "purchased Boston Biochem E-582", "T1 sequence (Q70CQ3 1-517)": "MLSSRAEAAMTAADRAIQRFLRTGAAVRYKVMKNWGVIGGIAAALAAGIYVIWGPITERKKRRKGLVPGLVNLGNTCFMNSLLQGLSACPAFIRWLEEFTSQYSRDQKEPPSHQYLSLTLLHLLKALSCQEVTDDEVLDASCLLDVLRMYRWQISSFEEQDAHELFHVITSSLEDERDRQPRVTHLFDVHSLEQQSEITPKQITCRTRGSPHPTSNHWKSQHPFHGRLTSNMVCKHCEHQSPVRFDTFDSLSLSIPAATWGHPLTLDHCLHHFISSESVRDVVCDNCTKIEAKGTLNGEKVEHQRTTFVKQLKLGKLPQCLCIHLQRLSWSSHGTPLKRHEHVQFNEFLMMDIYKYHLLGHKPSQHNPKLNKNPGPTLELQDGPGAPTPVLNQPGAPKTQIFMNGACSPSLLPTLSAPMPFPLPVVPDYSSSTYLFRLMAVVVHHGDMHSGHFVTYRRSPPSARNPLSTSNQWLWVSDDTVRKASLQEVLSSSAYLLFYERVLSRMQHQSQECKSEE", "assay": "Ubiquitin-Rhodamine 110 Assay for USP30 Activity (USP30 biochemical assay)", "details": "IC50 ranges; 0.4 nM enzyme, 25 nM Ub-Rh110, 30 min preincubation, test concentration 25 μM to 1.3 nM", "description": "Assay Example A: Description of Biochemical Assay: Ubiquitin-Rhodamine 110 Assay for USP30 Activity\nThe assay was performed in a final volume of 6 μL in assay buffer containing 20 mM Tris-HCl (pH 8.0, (1M Tris-HCl, pH 8.0 solution; Corning 46-031-CM)), 1 mM GSH (L-glutathione reduced, Sigma-Aldrich, G4251-100G), 0.03% BGG ([…], Sigma, G7516-25G), and 0.01% Triton X-100 (Sigma, T9284-10L). Nanoliter quantities of 10-point, 3-fold serial dilution in DMSO were pre-dispensed into 1536 assay plates (Corning, #3724BC) for a final test concentration of 25 μM to 1.3 nM, top to lowest dose, respectively. Concentration and incubation times were optimized for the maximal signal-to-background while maintaining initial velocity conditions at a fixed substrate concentration (<<Km). The final concentration of enzyme (human recombinant USP30, Boston Biochem, cat. #E-582) in the assay was 0.4 nM. Final substrate (Ub-R^h110; Ubiquitin-Rhodamine 110, UbiQ-126) concentration was 25 nM. 3 μL of 2× enzyme was added to assay plates (pre-stamped with compound), preincubated for 30 minutes and then treated with 3 μL of 2× substrate. Plates were read for fluorescence on the Envision (Perkin Elmer) or PheraSTAR (BMG) (excitation at 485 nm and emission at 535 nm) 5 times over the course of 11 minutes and the slope of this kinetic read used to normalize the raw data.\nFor all assay formats, data were reported as percent inhibition compared with control wells based on the following equation: % inh=1−((FLU−AveLow)/(AveHigh−AveLow)) where FLU=measured Fluorescence, AveLow=average Fluorescence of no enzyme control (n=32), and AveHigh=average Fluorescence of DMSO control (n=32). IC50 values were determined by curve fitting of the standard 4 parameter logistic fitting algorithm included in the Activity Base software package: IDBS XE Designer Model205. Data are fitted using the Levenburg Marquardt algorithm.", "units": {"IC50": "nM"}}
{"smiles": "N#CN1CC[C@@H]2CCN(c3ncc(C4CCCCC4)s3)C(=O)[C@H]2C1", "note": "(single isomer, unassigned) [1-12R,R]", "IC50": "100 to 1000"}
{"smiles": "N#CN1CC[C@H]2CCN(c3ncc(C4CCCCC4)s3)C(=O)[C@H]2C1", "note": "(single isomer, unassigned) [1-12S,R]", "IC50": "1000 to 10000"}
{"smiles": "N#CN1CC[C@H]2CCN(c3ncc(C4CCCCC4)s3)C(=O)[C@@H]2C1", "note": "(single isomer, unassigned) [1-12S,S]", "IC50": "1000 to 10000"}
{"smiles": "N#CN1CCN2CCN(c3ncc(N4CCCC[C@@H]4Cc4ccccc4)s3)C(=O)[C@H]2C1", "note": "(single isomer, unassigned) [1-118R,R]", "IC50": "100 to 1000"}
{"smiles": "N#CN1CCN2CCN(c3ncc(N4CCCC[C@H]4Cc4ccccc4)s3)C(=O)[C@H]2C1", "note": "(single isomer, unassigned) [1-118R,S]", "IC50": "< 100"}
{"smiles": "N#CN1CCN2CCN(c3ncc(N4CCCC[C@@H]4Cc4ccccc4)s3)C(=O)[C@@H]2C1", "note": "(single isomer, unassigned) [1-118S,R]", "IC50": "100 to 1000"}
{"smiles": "N#CN1CCN2CCN(c3ncc(N4CCCC[C@H]4Cc4ccccc4)s3)C(=O)[C@@H]2C1", "note": "(single isomer, unassigned) [1-118S,S]", "IC50": "100 to 1000"}
{"smiles": "N#CN1CC[C@@H]2CCN(c3ncc(C4CCCCC4)s3)C[C@@H]2C1", "note": "(single isomer, unassigned) [4-1R,S]", "IC50": "1000 to 10000"}
{"smiles": "N#CN1CC[C@H]2CCN(c3ncc(C4CCCCC4)s3)C[C@H]2C1", "note": "(single isomer, unassigned) [4-1S,R]", "IC50": "1000 to 10000"}
{"smiles": "N#CN1CC[C@H]2CN(c3ncc(C4CCCCC4)s3)C(=O)[C@H]2C1", "note": "(single isomer, unassigned) [5-1R,R]", "IC50": "10000 to 25000"}
{"smiles": "N#CN1CC[C@@H]2CN(c3ncc(C4CCCCC4)s3)C(=O)[C@@H]2C1", "note": "(single isomer, unassigned) [5-1S,S]", "IC50": "1000 to 10000"}
{"smiles": "N#Cc1cccc(-c2cnc(N3C[C@H]4CN(C#N)CC[C@H]4C3)nc2)c1", "note": "(single isomer, unassigned) [5-2R,R]", "IC50": "> 25000"}
{"smiles": "N#Cc1cccc(-c2cnc(N3C[C@H]4CCN(C#N)C[C@H]4C3)nc2)c1", "note": "(single isomer, unassigned) [5-2S,S]", "IC50": "10000 to 25000"}
{"smiles": "N#CN1CCN2CCN(c3ncc(C4CCCCC4)s3)C(=O)[C@H]2C1", "note": "(single isomer, unassigned) [Compound 1-1R]", "IC50": "< 100"}
{"smiles": "N#CN1CCN2CCN(c3ncc(C4CCCCC4)s3)C(=O)[C@@H]2C1", "note": "(single isomer, unassigned) [Compound 1-1S]", "IC50": "100 to 1000"}
{"smiles": "CC(C)(C)c1sc(N2CCN3CCN(C#N)C[C@@H]3C2=O)nc1Cl", "note": "(single isomer, unassigned) [Compound 1-2R]", "IC50": "< 100"}
{"smiles": "CC(C)(C)c1sc(N2CCN3CCN(C#N)C[C@H]3C2=O)nc1Cl", "note": "(single isomer, unassigned) [Compound 1-2S]", "IC50": "< 100"}
{"smiles": "N#CN1CCN2CCN(c3nc(Cl)c(C4CCCCC4)s3)C(=O)[C@H]2C1", "note": "(single isomer, unassigned) [Compound 1-3R]", "IC50": "< 100"}
{"smiles": "N#CN1CCN2CCN(c3nc(Cl)c(C4CCCCC4)s3)C(=O)[C@@H]2C1", "note": "(single isomer, unassigned) [Compound 1-3S]", "IC50": "< 100"}
{"smiles": "N#Cc1cccc(-c2cnc(N3CCN4CCN(C#N)C[C@@H]4C3=O)nc2)c1", "note": "(single isomer, unassigned) [Compound 1-4R]", "IC50": "1000 to 10000"}
{"smiles": "N#Cc1cccc(-c2cnc(N3CCN4CCN(C#N)C[C@H]4C3=O)nc2)c1", "note": "(single isomer, unassigned) [Compound 1-4S]", "IC50": "1000 to 10000"}
{"smiles": "N#CN1CCN2CCN(c3ncc(-c4cccc(Cl)c4)cn3)C(=O)[C@H]2C1", "note": "(single isomer, unassigned) [Compound 1-5R]", "IC50": "1000 to 10000"}
{"smiles": "N#CN1CCN2CCN(c3ncc(-c4cccc(Cl)c4)cn3)C(=O)[C@@H]2C1", "note": "(single isomer, unassigned) [Compound 1-5S]", "IC50": "1000 to 10000"}
{"smiles": "N#Cc1cccc(-c2cnc(N3CCN4CCN(C#N)C[C@@H]4C3=O)s2)c1", "note": "(single isomer, unassigned) [Compound 1-6R]", "IC50": "< 100"}
{"smiles": "N#Cc1cccc(-c2cnc(N3CCN4CCN(C#N)C[C@H]4C3=O)s2)c1", "note": "(single isomer, unassigned) [Compound 1-6S]", "IC50": "< 100"}
{"smiles": "N#CN1CCN2CCN(c3ncc(-c4cccc(Cl)c4)s3)C(=O)[C@H]2C1", "note": "(single isomer, unassigned) [Compound 1-7R]", "IC50": "< 100"}
{"smiles": "N#CN1CCN2CCN(c3ncc(-c4cccc(Cl)c4)s3)C(=O)[C@@H]2C1", "note": "(single isomer, unassigned) [Compound 1-7S]", "IC50": "< 100"}
{"smiles": "N#CN1CCN2CCN(c3cc(-c4cccc(Cl)c4)on3)C(=O)[C@H]2C1", "note": "(single isomer, unassigned) [Compound 1-11R]", "IC50": "> 25000"}
{"smiles": "N#CN1CCN2CCN(c3cc(-c4cccc(Cl)c4)on3)C(=O)[C@@H]2C1", "note": "(single isomer, unassigned) [Compound 1-11S]", "IC50": "> 25000"}
{"smiles": "N#CN1CCN2CCN(c3ncc(-c4ccccc4)s3)C(=O)[C@H]2C1", "note": "(single isomer, unassigned) [Compound 1-14R]", "IC50": "< 100"}
{"smiles": "N#CN1CCN2CCN(c3ncc(-c4ccccc4)s3)C(=O)[C@@H]2C1", "note": "(single isomer, unassigned) [Compound 1-14S]", "IC50": "100 to 1000"}
{"smiles": "CC(C)(C)c1cnc(N2CCN3CCN(C#N)C[C@]3(C)C2=O)s1", "note": "(single isomer, unassigned) [Compound 1-15R]", "IC50": "1000 to 10000"}
{"smiles": "N#CN1CCN2CCN(c3cc(-c4ccccc4Oc4ccccc4)[nH]n3)C(=O)[C@H]2C1", "note": "(single isomer, unassigned) [Compound 1-114R]", "IC50": "100 to 1000"}
{"smiles": "N#CN1CCN2CCN(c3cc(-c4ccccc4Oc4ccccc4)[nH]n3)C(=O)[C@@H]2C1", "note": "(single isomer, unassigned) [Compound 1-114S]", "IC50": "100 to 1000"}
{"smiles": "N#CN1CCN2CCN(c3ncc(-c4cccc(CN5CCC5)c4)s3)C(=O)[C@H]2C1", "note": "(single isomer, unassigned) [Compound 1-115R]", "IC50": "1000 to 10000"}
{"smiles": "N#CN1CCN2CCN(c3ncc(-c4cccc(CN5CCC5)c4)s3)C(=O)[C@@H]2C1", "note": "(single isomer, unassigned) [Compound 1-115S]", "IC50": "1000 to 10000"}
{"smiles": "CC(C)(C)c1sc(N2CCN3CCN(C#N)C[C@@]3(F)C2=O)nc1Cl", "note": "(single isomer, unassigned) [Compound 1-116R]", "IC50": "1000 to 10000"}
{"smiles": "CC(C)(C)c1sc(N2CCN3CCN(C#N)C[C@]3(F)C2=O)nc1Cl", "note": "(single isomer, unassigned) [Compound 1-116S]", "IC50": "1000 to 10000"}
{"smiles": "C[C@]12CN(C#N)CCN1CCN(c1ncc(C3CCCCC3)s1)C2=O", "note": "(single isomer, unassigned) [Compound 1-117R]", "IC50": "< 100"}
{"smiles": "C[C@@]12CN(C#N)CCN1CCN(c1ncc(C3CCCCC3)s1)C2=O", "note": "(single isomer, unassigned) [Compound 1-117S]", "IC50": "1000 to 10000"}
{"smiles": "N#CN1CC(=O)N2CCN(c3ncc(C4CCCCC4)s3)C[C@H]2C1", "note": "(single isomer, unassigned) [Compound 3-1R]", "IC50": "< 100"}
{"smiles": "N#CN1CC(=O)N2CCN(c3ncc(C4CCCCC4)s3)C[C@@H]2C1", "note": "(single isomer, unassigned) [Compound 3-1S]", "IC50": "100 to 1000"}
{"smiles": "CC(C)(C)c1sc(N2CC(=O)N3CCN(C#N)C[C@@H]3C2=O)nc1Cl", "note": "(single isomer, unassigned) [Compound 6-1R]", "IC50": "< 100"}
{"smiles": "CC(C)(C)c1sc(N2CC(=O)N3CCN(C#N)C[C@H]3C2=O)nc1Cl", "note": "(single isomer, unassigned) [Compound 6-1S]", "IC50": "< 100"}
{"smiles": "N#CN1CCN2CCN(c3ncc(-c4ccccc4Oc4ccccc4)s3)C(=O)C2C1", "note": "(stereo in doubt) [Compound 1-113R, (R)-9-oxo-8-(5-(2-phenoxyphenyl)thiazol-2-yl)octahydro-2H-pyrazino[1,2-a]pyrazine-2-carbonitrile]", "IC50": "< 100"}
{"smiles": "N#CN1CCN2CCN(c3ncc(-c4ccccc4Oc4ccccc4)s3)C(=O)C2C1", "note": "(stereo in doubt) [Compound 1-113S, (S)-9-oxo-8-(5-(2-phenoxyphenyl)thiazol-2-yl)octahydro-2H-pyrazino[1,2-a]pyrazine-2-carbonitrile]", "IC50": "< 100"}
